From patent publication US9504746B2, “Pharmaceutical compositions of 4-(3-chloro-4-(cyclopropylaminocarbonyl)aminophenoxy)-7-methoxy-6-quinolinecarboxamide” (Eisai R&D Management Co., Ltd., priority 2004, dated 2016)

assay: pH of 5% (w/w) aqueous solution or suspension of additive; assay type: physicochemical; settings: 5% (w/w) aqueous solution or suspension of the additive itself

SMILES | pH value of 5% (w/w) aqueous solution or suspension
[Na+].[OH-] [NaOH, Sodium hydroxide] | 13.56
O=C1O[C@H](CO)[C@@H](O)[C@H](O)[C@H]1O [δ-Gluconolactone] | 2.40
[O]=[Mg] [MgO, Magnesium oxide] | 10.63
O=P([O-])([O-])O.[Na+].[Na+] [Na2HPO4, Disodium hydrogenphosphate] | 9.26
O=P([O-])([O-])O.[K+].[K+] [Example K2HPO4, Dipotassium hydrogenphosphate] | 9.11
O=C([O-])[O-].[Na+].[Na+] [Na2CO3, Sodium carbonate] | 11.45
O=C([O-])O.[Na+] [NaHCO3, Sodium hydrogencarbonate] | 8.15
O=C([O-])CC(O)(CC(=O)[O-])C(=O)[O-].[Na+].[Na+].[Na+] [Sodium citrate] | 8.22
NCC(=O)O [Glycine] | 6.17
CC(=O)[O-].[Na+] [Sodium acetate] | 8.46
